{"source": "ChEMBL document CHEMBL1201862", "about": "“PubChem BioAssay data set” (2004)", "key": {"[1]": {"molecular_target": "T1, Intestinal-type alkaline phosphatase (Homo sapiens, UniProt P09923)", "T1 sequence (P09923 whole entry)": "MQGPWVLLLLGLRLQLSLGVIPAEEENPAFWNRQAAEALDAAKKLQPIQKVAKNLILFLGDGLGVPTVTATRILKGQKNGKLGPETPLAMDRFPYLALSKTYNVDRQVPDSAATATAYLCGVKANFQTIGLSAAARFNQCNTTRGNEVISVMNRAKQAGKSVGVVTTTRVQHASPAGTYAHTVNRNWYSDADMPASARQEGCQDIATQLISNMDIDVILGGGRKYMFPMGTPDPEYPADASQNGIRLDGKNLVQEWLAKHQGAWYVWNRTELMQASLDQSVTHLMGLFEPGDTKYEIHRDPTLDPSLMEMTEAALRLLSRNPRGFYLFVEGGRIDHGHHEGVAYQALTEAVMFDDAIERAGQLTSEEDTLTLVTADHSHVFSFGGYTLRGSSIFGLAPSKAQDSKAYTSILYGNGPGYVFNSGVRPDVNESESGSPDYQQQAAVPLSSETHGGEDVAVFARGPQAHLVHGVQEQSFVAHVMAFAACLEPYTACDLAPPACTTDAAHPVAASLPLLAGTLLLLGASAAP", "experiment": "inhibition of human intestinal alkaline phosphatase – biochemical, dose response (AID 488876)", "type": "functional"}, "[2]": {"molecular_target": "T2, Alkaline phosphatase, tissue-nonspecific isozyme (Homo sapiens, UniProt P05186)", "T2 sequence (P05186 whole entry)": "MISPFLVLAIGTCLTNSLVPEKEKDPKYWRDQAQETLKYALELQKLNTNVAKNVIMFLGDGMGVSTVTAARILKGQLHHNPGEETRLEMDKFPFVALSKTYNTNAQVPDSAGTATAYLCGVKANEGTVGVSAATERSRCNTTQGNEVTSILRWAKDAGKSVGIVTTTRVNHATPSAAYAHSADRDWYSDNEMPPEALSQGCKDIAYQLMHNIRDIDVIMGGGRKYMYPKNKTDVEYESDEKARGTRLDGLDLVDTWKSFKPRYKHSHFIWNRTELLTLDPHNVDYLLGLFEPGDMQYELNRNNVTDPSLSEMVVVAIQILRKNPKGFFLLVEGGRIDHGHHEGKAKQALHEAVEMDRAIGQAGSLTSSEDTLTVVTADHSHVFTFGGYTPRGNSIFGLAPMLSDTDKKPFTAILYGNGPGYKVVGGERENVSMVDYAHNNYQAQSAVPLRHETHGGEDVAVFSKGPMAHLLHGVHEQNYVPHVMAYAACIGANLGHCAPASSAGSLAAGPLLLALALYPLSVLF", "experiment": "TNAP enzyme inhibition by screening hits, dose response, selectivity assay for mouse IAP inhibitor project, biochemical, human TNAP, uHTS hits (AID 488906)", "type": "functional"}, "[3]": {"molecular_target": "Intestinal-type alkaline phosphatase (Mus musculus, UniProt P24822)", "sequence (P24822 whole entry)": "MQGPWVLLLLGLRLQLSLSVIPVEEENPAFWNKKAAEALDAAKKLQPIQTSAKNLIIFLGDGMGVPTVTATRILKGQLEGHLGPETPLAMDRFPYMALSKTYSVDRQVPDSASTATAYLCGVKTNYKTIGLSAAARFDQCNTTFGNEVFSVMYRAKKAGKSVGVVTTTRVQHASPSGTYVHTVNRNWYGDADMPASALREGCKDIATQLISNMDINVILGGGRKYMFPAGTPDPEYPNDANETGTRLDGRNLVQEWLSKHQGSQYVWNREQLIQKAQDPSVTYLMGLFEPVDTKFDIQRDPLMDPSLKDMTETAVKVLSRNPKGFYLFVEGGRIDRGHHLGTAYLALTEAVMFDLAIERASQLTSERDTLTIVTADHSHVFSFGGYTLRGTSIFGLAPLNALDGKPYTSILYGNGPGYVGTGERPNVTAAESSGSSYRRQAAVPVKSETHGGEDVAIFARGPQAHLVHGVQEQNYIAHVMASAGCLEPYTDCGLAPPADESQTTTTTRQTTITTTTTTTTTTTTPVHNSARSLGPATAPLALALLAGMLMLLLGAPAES", "experiment": "PubChem AID 488785", "type": "functional"}, "SUMO E1/E2": {"molecular_target": "SUMO E1/E2 (Homo sapiens, UniProt P63279+Q9UBE0+Q9UBT2)", "experiment": "SAR analysis of SUMOylation using HTRF in an in-Vitro dose response assay. [Related pubchem assays (depositor defined):AID2006, AID2011, AID2018, AID2069, AID2658]", "type": "functional"}, "ORF 73": {"molecular_target": "T3, ORF 73 (Human herpesvirus 8, UniProt O40947)", "T3 sequence (O40947 whole entry)": "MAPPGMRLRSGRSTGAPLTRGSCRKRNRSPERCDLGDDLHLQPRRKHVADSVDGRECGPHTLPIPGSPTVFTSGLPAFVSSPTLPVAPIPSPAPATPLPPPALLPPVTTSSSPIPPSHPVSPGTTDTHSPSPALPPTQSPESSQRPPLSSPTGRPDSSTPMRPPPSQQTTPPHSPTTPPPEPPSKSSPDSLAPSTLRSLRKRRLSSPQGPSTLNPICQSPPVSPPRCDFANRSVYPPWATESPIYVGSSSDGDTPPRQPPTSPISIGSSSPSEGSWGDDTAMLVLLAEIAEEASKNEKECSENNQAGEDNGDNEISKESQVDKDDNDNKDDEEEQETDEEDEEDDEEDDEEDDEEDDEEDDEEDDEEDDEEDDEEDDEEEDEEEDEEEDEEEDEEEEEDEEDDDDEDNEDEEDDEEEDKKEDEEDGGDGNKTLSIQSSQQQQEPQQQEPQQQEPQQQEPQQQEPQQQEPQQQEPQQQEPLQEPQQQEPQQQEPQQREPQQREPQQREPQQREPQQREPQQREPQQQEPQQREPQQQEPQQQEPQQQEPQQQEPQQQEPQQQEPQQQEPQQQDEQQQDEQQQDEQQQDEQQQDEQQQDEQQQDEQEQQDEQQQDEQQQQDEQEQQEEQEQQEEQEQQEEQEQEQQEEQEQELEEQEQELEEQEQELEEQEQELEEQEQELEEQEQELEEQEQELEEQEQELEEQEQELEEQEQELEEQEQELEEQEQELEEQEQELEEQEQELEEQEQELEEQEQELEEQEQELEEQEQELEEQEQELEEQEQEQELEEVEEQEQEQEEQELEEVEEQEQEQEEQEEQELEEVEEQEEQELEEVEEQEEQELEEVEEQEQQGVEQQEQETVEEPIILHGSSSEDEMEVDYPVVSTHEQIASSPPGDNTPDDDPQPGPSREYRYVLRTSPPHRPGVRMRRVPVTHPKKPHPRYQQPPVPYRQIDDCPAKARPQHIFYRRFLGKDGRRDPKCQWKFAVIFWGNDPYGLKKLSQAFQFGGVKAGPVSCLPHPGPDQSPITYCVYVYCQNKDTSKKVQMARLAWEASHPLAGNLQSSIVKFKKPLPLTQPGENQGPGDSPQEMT", "experiment": "KSHV LANA DNA-binding disruption – biochemical, fluorescence polarization, cherry-picked samples, dose response (AID 504725);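 note: fluorescence polarization of a labeled DNA duplex reporting LANA DNA binding; potency is for inhibitors that block LANA binding to the DNA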", "set-up": "species or system Human gammaherpesvirus 8"}, "[4]": {"molecular_target": "T1, Intestinal-type alkaline phosphatase", "experiment": "activation of human intestinal alkaline phosphatase – biochemical, dose response (AID 488873)", "type": "functional"}, "HeLa": {"test_system": "HeLa", "experiment": "viability loss in HeLa cells – cell-based, 24 h, cherry-picked samples, cytotoxicity control, dose response (AID 504726);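 note: potency for cytotoxicity as loss of luminescence signal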", "type": "functional", "conditions": "Homo sapiens"}, "Large T antigen": {"molecular_target": "Large T antigen (Simian virus 40, UniProt P03070)", "sequence (P03070 whole entry)": "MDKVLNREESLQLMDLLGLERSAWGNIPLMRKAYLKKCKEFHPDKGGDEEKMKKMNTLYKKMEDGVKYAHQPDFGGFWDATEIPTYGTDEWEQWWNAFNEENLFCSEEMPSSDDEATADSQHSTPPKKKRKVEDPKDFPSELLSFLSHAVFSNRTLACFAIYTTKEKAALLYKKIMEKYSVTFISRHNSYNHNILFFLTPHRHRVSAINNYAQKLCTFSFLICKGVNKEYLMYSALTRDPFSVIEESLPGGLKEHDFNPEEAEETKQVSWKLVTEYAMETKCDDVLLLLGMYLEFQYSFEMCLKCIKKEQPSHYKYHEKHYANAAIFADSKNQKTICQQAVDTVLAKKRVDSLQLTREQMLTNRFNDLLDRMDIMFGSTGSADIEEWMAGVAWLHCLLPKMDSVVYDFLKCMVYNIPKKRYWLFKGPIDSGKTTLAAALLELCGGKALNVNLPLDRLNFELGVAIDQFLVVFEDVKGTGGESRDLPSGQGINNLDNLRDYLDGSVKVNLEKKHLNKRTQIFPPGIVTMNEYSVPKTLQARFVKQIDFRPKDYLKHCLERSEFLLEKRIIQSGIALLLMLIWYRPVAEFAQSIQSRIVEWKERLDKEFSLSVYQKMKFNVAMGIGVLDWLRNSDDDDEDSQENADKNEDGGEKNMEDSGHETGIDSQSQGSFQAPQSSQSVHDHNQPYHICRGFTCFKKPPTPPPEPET", "type": "functional, Betapolyomavirus macacae"}, "[5]": {"molecular_target": "T2, Alkaline phosphatase, tissue-nonspecific isozyme", "experiment": "activation of tissue-nonspecific alkaline phosphatase – biochemical, TNAP isozyme, mouse IAP uHTS hits, selectivity assay for mouse IAP activator project, dose response (AID 488880)", "type": "functional"}, "[6]": {"molecular_target": "Lysine-specific demethylase 4A (Homo sapiens, UniProt O75164)", "sequence (O75164 whole entry)": "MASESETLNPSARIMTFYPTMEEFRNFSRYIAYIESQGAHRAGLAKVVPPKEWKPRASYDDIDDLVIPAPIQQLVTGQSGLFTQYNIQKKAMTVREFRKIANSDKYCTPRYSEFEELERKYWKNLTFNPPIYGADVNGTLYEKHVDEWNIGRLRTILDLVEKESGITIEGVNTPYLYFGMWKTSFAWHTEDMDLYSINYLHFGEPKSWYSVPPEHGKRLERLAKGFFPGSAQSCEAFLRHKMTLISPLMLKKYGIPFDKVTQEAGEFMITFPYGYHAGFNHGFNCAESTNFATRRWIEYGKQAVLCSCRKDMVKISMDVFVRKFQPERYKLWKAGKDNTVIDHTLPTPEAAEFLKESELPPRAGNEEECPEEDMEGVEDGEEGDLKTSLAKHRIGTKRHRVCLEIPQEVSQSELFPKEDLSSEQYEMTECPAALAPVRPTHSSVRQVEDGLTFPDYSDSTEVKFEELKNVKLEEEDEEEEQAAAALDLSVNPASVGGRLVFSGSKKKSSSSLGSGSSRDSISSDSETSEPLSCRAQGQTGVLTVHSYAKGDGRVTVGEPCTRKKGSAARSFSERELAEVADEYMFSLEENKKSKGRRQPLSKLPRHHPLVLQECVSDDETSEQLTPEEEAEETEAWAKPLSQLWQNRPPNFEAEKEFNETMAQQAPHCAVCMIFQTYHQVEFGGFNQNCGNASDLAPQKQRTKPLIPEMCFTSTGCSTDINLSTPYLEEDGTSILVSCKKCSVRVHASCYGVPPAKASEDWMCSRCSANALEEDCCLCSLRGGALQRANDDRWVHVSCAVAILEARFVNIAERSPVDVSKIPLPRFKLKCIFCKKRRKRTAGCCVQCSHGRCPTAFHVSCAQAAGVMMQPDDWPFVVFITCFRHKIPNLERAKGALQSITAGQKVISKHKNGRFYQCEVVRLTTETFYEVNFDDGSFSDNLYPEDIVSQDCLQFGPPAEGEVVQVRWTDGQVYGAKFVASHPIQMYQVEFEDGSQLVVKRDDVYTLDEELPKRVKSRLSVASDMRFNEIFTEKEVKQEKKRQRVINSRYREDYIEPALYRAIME", "experiment": "inhibition of JMJD2A H3K9me3 demethylation – biochemical, DELFIA europium, cherry-picked samples, selectivity assay for GASC-1 inhibitor project, dose response (AID 488840)"}, "[7]": {"molecular_target": "T4, Sentrin-specific protease 8 (Homo sapiens, UniProt Q96LD8)", "T4 sequence (Q96LD8 whole entry)": "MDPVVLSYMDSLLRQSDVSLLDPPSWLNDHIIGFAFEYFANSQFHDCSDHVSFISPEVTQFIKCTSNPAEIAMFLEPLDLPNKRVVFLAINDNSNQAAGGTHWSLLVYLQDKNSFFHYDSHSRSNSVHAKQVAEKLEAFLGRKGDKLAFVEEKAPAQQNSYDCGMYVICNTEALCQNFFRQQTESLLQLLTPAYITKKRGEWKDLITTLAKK", "type": "functional"}, "[8]": {"molecular_target": "Lysine-specific demethylase 4C (Homo sapiens, UniProt Q9H3R0)", "sequence (Q9H3R0 whole entry)": "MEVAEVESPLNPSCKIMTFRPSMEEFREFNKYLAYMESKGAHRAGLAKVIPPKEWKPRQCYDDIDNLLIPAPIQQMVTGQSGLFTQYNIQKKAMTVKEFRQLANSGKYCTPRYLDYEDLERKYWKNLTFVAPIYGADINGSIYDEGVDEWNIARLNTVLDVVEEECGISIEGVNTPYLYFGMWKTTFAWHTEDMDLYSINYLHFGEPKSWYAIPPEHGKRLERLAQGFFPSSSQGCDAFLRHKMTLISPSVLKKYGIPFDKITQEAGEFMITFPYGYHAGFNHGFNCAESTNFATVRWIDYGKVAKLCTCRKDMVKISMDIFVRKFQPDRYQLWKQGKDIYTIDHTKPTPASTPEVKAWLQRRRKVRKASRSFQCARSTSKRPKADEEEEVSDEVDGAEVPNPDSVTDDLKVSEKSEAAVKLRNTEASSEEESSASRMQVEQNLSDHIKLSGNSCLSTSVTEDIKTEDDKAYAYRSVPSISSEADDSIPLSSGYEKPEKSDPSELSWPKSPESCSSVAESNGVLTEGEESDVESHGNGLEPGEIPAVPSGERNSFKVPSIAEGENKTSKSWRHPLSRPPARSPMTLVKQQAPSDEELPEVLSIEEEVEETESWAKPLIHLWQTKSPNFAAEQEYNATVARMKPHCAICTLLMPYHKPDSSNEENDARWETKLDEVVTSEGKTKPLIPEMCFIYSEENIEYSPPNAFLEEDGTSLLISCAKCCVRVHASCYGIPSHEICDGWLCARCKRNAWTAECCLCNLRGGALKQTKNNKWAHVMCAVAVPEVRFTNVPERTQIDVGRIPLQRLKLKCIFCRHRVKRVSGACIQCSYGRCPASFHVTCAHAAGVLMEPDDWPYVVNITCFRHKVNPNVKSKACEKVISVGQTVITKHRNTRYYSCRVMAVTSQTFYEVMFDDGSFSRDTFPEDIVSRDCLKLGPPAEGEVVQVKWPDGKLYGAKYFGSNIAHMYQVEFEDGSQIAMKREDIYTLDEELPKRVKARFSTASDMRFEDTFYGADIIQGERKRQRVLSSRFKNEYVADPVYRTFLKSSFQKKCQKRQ", "experiment": "inhibition of JMJD2C H3K9me3 demethylation – biochemical, DELFIA europium, cherry-picked samples, dose response (AID 488835)", "type": "functional"}, "[9]": {"molecular_target": "T4, Sentrin-specific protease 8", "type": "functional", "remark": "listed apart in the source"}}, "note": "The source made the active and inactive calls."}
{"smiles": "O=C(O)CNS(=O)(=O)c1ccc2c3c(cccc13)C(=O)N2", "values": [{"measurement": "IC50", "setting": "[1]", "value": "> 100 µM (inactive)"}, {"measurement": "IC50", "setting": "[2]", "value": "85.4 µM (active)"}, {"measurement": "IC50", "setting": "[3]", "value": "8.43 µM (active)"}]}
{"smiles": "Cc1ccc(O)c(N=Cc2cccs2)c1", "values": [{"measurement": "IC50", "setting": "SUMO E1/E2", "value": "> 100 µM (inactive)"}]}
{"smiles": "N=C1/C(=C\\c2ccc(O)c(O)c2)C(=O)N=C2SC(CC(=O)N3CCCCC3)=NN12", "values": [{"measurement": "AC50", "setting": "ORF 73", "value": "2.44 µM (active)"}, {"measurement": "EC50", "setting": "[4]", "value": "21.3 µM (active)"}, {"measurement": "AC50", "setting": "HeLa", "value": "267 µM (active)"}, {"measurement": "IC50", "setting": "Large T antigen", "value": "1.92 µM (active)"}, {"measurement": "EC50", "setting": "[5]", "value": "21.5 µM (active)"}, {"measurement": "IC50", "setting": "[3]", "value": "6.98 µM (active)"}]}
{"smiles": "CN1C(=O)C(Cc2ccsc2)C(=O)N(C)C1=O", "values": [{"measurement": "AC50", "setting": "[6]", "value": "8.7 µM (active)"}, {"measurement": "IC50", "setting": "[7]", "value": "29.2 µM (active)"}, {"measurement": "AC50", "setting": "[8]", "value": "3.65 µM (active)"}, {"measurement": "IC50", "setting": "[9]", "value": "33.6 µM (active)"}]}
